Experimental data taken from patent publication US20110152112A1, “DIAGNOSIS AND TREATMENT OF REVERSE CHOLESTEROL TRANSPORT DEFICIENCY-RELATED DISEASES” (Artery Therapeutics, Inc., priority 2009, published 2011).

Tested on: J774 mouse macrophages (foam-cells)
Assay: Lipid efflux from J774 macrophage foam-cells to media (nascent HDL, LC-MS/MS)
Assay type: cell-based
Procedure: Study 1: Isolation of Nascent HDL from Incubations of Macrophage Foam-Cells with AT5261 and apoA-I.
A commercial transformed macrophage cell-line, J774 (mouse), was used to evaluate lipid efflux responses to peptide ATI-5261 and ApoA-I. Macrophage foam-cells were prepared and exposed to lipid-free AT5261 peptide and ApoA-I, respectively; Nascent HDL products resulting from stimulation of cholesterol efflux were isolated and concentrated from conditioned medium and analyzed for lipid content.
Near confluent T175-flasks (30 total) of J774 mouse macrophages were incubated (2 days) with 0.1 mg/ml acetylated LDL in […] culture medium containing 1% FBS, to produce foam-cells. On the day of the experiment, cell monolayers were rinsed (3 times) with 20 ml/flask of HBSS, incubated 1 h with 0.2% BSA in serum-free RPMI-1640 medium, then rinsed (3 times) with serum-free RPMI. Rinsed cells were then exposed (20 ml/flask) to either apoA-I (15 flasks) or ATI-5261 (15 flasks), at a final concentration of 10 microgram/ml serum free RPMI. Following 20 h, conditioned medium was recovered from flasks, pooled within groups, and filtered (0.2 mμ). The pooled medium (˜300 ml) was subsequently concentrated to 5 ml using an Amicon stir-cell (10 K membrane) and density adjusted to 1.21 g/ml with solid NaBr. Nascent HDL was isolated by ultracentrifugation (120K, 5 h 20 minutes, 10° C.) using a TL-120 centrifuge, samples dialyzed to saline (pH=7.4) and filter sterilized (0.2 nip, Nalgene capsules). Isolated material was used for detailed MS of PL subclasses, subjected to non-denaturing gradient gel electrophoresis and protein lipid ratios determined by 280 abs. and commercial kits.
Samples were kept at −80° C. until extraction. Samples were allowed to thaw on ice and a small aliquot of each sample was transferred into siliconized glass tubes followed by addition of ultrapure water. Samples were spiked with either a mixture of C17-based ceramide, sphingosine, sphingosine-1-phosphate and sphingomyelin (10 ng of each as internal sphingolipid standards) or ([…] of deuterated 16:0/16:0 PC as internal phosphatidylcholine standard). Samples were subjected to a Bligh and Dyer extraction (Bligh, E. G., Dryer, W. J. (1959) Can J Biochem physiol 37, 911-917). Lipid extracts were dried under stream of nitrogen at room temperature. The dried lipid extracts were then reconstituted in […] ethanol/formic acid (99.8/0.2) and kept at 4° C. until LC-MS/MS analysis. Extracts were injected onto a reverse phase C18 HPLC Column to separate and resolve the various lipids. Phosphatidylcholine and sphingolipids were eluted off the column and analyzed on a triple quadrupole mass spectrometer Sciex API 5500. The data acquisition was performed in a targeted MRM (MS/MS) mode using lipid specific precursor ion to product ion (or parent to daughter ion) mass transitions resulting in highly sensitive and specific quantitative data. The resulting data was processed using Applied Biosystems Analyst 1.4.2 software.

ApoA-I: apolipoprotein A-I, natures strongest effluxer, lipid-free comparator
Cholesterol: Phospholipid molar ratio mobilized to media (10 microgram/ml, 20 h, (S.D.)): 2.89 (S.D. 0.68) | PC mobilized to media (LC-MS/MS, 10 microgram/ml, 20 h): 19 | LPC mobilized to media (LC-MS/MS, n=2): 40 | LPC media concentrations (all LPC): increased | phospholipid (PL) media concentrations (all PL): increased | type of LPC mobilized (values adjusted for the 2-fold difference): more of longer chain and more saturated LPCs
